Measurements taken from patent US11111227B2, “Rotigotine behenate, and manufacturing method and application thereof” (Shandong Luye Pharmaceutical Co., Ltd., priority 2016, dated 2021).
Values belong to the molecule of their own block, whether it stands above or below them.

Key:
[1] = Test Example 3: pharmacokinetic performance of each drug injection in rats (intramuscular); assay type: in vivo
Protocol: Test Example 3: Pharmacokinetic Performance of Each Drug Injection in Rats
Male SD rats (provided by Shandong Luye Pharma Group Ltd.), weighing 190-280 g, 12 rats, 3 rats in each group.
Vehicle containing 1% of HPMC was prepared, and rotigotine arachidate, rotigotine behenate and rotigotine lignocerate were added to the vehicle respectively to provide 10 mg/ml of suspensions (calculated as rotigotine).
The experimental animals were randomly divided into rotigotine arachidate group (A), rotigotine behenate group (B) and rotigotine lignocerate group (C), with 3 rats in each group, The rats in Groups A, B and C were intramuscularly injected with the corresponding drug (2 ml/kg).
(§1) Blood samples were taken from the eyelids of the rats in Groups A, B, and C before the administration (0 h) and at 0.25 h, 1 h, 6 h, 1 d, 2 d, 3 d, 5 d, 7 d, 9 d, 11 d, 14 d, 16 d, 18 d, 21 d, 25 d, 28 d, 30 d, 35 d, 39 d, 42 d after administration. Each blood sample was placed into heparinized EP tube, and was immediately centrifuged (3000 rpm) for 10 min. The plasma was separated and stored at −35° C. for testing.

[2] = Test Example 1: pharmacokinetic performance of rotigotine caprylate injection in rats (intramuscular); assay type: in vivo
Protocol: Test Example 1: Pharmacokinetic Performance of Rotigotine Caprylate Injection in Rats
Rotigotine caprylate: prepared according to Comparative Example 1
Male SD rats (provided by Shandong Luye Pharma Group Ltd.), weighing 190-280 g, 3 rats.
Vehicle containing 1% of HPMC was prepared, and rotigotine caprylate was added to the vehicle to provide a 10 mg/ml of suspension (calculated as rotigotine). Three rats were intramuscularly injected with 2 mL/kg of the drug. Blood samples were taken from the eyelids of the rats before the administration (0 h) and at 0.25 h, 1 h, 6 h, 1 d, 2 d, 3 d, 5 d, 7 d, 9 d, 11 d, 14 d, 16 d, 18 d, 21 d, 24 d, 28 d after administration. Each blood sample was placed into heparinized EP tube, and was immediately centrifuged (3000 rpm) for 10 min. The plasma was separated and stored at −35° C. for testing.

[3] = Test Example 2: pharmacokinetic performance of each drug injection in rats (intramuscular, groups A-C); assay type: in vivo
Protocol: Test Example 2: Pharmacokinetic Performance of Each Drug Injection in Rats
(§2) Experimental animals: Male SD rats (provided by Shandong Luye Pharma Group Ltd.), weighing 190-280 g, 12 rats in total, 3 rats in each group.
(§3) Vehicle containing 1% of HPMC was prepared, and rotigotine oleate, rotigotine palmitate and rotigotine stearate were added to the vehicle respectively to provide 10 mg/ml of suspensions (calculated as rotigotine). Rotigotine hydrochloride was formulated as a 0.36 mg/ml injection (calculated as rotigotine) in normal saline.
(§4) The experimental animals were randomly divided into rotigotine oleate group (A), rotigotine palmitate group (B), rotigotine stearate group (C) and rotigotine hydrochloride group (D), with 3 rats in each group. The rats in Groups A, B, and C were intramuscularly injected with the corresponding drug (2 ml/kg), and the rats in group D were injected intravenously with the corresponding drug (2 ml/kg).
as §1, with “d, 24” for “d, 25”, “28” for “28 d, 30 d, 35 d, 39 d, 42”, “Each” for “Each blood”

[4] = first-pass effect of the liver; cited from earlier work
[5] = Test Example 2: rotigotine hydrochloride intravenous injection in rats (group D); assay type: in vivo; details: male, SD, rat, plasma, rotigotine hydrochloride intravenous 2 ml/kg of 0.36 mg/ml injection, read-out: Blood concentration in rats
Protocol: Rotigotine hydrochloride: purity of 99.83%
as §2, §3, §4
Blood samples were taken from the eyelids of the rats in Group D before the administration (0 h) and at 3 min, 10 min, 0.25 h, 0.5 h, 1 h, 1.5 h, 2 h, 4 h, 6 h, 8 h, and 12 h after administration. Each blood sample was placed into heparinized EP tube, and was immediately centrifuged (3000 rpm) for 10 min. The plasma was separated and stored at −35° C. for testing.

Structure (SMILES): CCCCCCCCCCCCCCCCCCCC(=O)Oc1cccc2c1CCC(N(CCC)CCc1cccs1)C2 (stereo not shown) [Rotigotine arachidate]
Maintenance of the effective blood concentration [1]: maintained only for a short period of time

Structure (SMILES): CCCCCCCC(=O)Oc1cccc2c1CC[C@H](N(CCC)CCc1cccs1)C2 [Rotigotine caprylate]
Maintenance of the effective blood concentration [2]: maintained only for a short period of time

Structure (SMILES): CCCCCCCCCCCCCCCCCCCCCCCC(=O)Oc1cccc2c1CCC(N(CCC)CCc1cccs1)C2 (stereo not shown) [Rotigotine lignocerate]
Maintenance of the effective blood concentration [1]: cannot be maintained for more than two weeks

Structure (SMILES): CCCCCCCC/C=C\CCCCCCCC(=O)Oc1cccc2c1CCC(N(CCC)CCc1cccs1)C2 (stereo not shown) [Rotigotine oleate]
Maintenance of the effective blood concentration [3]: maintained only for a short period of time

The next lines start with results.

Maintenance of the effective blood concentration [1]: more than two weeks
Structure (SMILES): CCCCCCCCCCCCCCCCCCCCCC(=O)Oc1cccc2c1CC[C@H](N(CCC)CCc1cccs1)C2 [Rotigotine behenate]

Maintenance of the effective blood concentration [3]: no more than two weeks
Structure (SMILES): CCCCCCCCCCCCCCCC(=O)Oc1cccc2c1CCC(N(CCC)CCc1cccs1)C2 (stereo not shown) [Rotigotine palmitate]

Maintenance of the effective blood concentration [3]: no more than two weeks
Structure (SMILES): CCCCCCCCCCCCCCCCCC(=O)Oc1cccc2c1CCC(N(CCC)CCc1cccs1)C2 (stereo not shown) [Rotigotine stearate]

concentration at 1 h ([5]; 0.72 mg/kg (calculated as rotigotine), 1 h): 12.1 ng/mL
concentration at 1.5 h ([5]; 0.72 mg/kg (calculated as rotigotine), 1.5 h): 7.25 ng/mL
concentration at 2 h ([5]; 0.72 mg/kg (calculated as rotigotine), 2 h): 4.71 ng/mL
concentration at 0 h ([5]; 0.72 mg/kg, 0 h (before administration)): 0 ng/mL
concentration at 0.05 h ([5]; 0.72 mg/kg, 0.05 h): 82.5 ng/mL
concentration at 0.17 h ([5]; 0.72 mg/kg, 0.17 h): 43.8 ng/mL
concentration at 0.25 h ([5]; 0.72 mg/kg, 0.25 h): 45.4 ng/mL
concentration at 0.5 h ([5]; 0.72 mg/kg, 0.5 h): 29 ng/mL
concentration at 4 h ([5]; 0.72 mg/kg, 4 h): 0.99 ng/mL
concentration at 8 h ([5]; 0.72 mg/kg, 8 h): 0.16 ng/mL
concentration at 12 h ([5]; 0.72 mg/kg, 12 h): 0.04 ng/mL
Structure (SMILES): CCCN(CCc1cccs1)[C@H]1CCc2c(O)cccc2C1 [Rotigotine]
Oral bioavailability [4]: 1%-5%
